This passage reports IC50 results from ChEMBL document CHEMBL1136661, “Interfacial peptide inhibitors of HIV-1 integrase activity and dimerization” (Bioorg Med Chem Lett, 2003).

The target of this test is Human immunodeficiency virus type 1 integrase (Human immunodeficiency virus 1, UniProt Q7ZJM1). Briefly: Inhibitory activity of compound against HIV-1 integrase.
Sequence of Human immunodeficiency virus type 1 integrase (Q7ZJM1 whole entry): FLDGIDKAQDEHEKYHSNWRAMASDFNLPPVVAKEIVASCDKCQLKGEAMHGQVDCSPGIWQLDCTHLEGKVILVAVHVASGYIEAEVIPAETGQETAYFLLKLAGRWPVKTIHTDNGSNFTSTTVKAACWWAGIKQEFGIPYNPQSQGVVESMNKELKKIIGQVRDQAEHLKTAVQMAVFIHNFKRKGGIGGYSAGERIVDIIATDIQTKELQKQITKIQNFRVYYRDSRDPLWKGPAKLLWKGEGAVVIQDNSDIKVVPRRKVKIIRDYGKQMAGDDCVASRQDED
`CC[C@@H](C)[C@H](NC(=O)[C@H](CCCNC(=N)N)NC(=O)[C@H](CCC(=O)O)NC(=O)CNC(=O)[C@H](C)N)C(=O)N[C@H](C(=O)N[C@@H](CC(=O)O)C(=O)N[C@H](C(=O)N[C@H](C(=O)N[C@@H](C)C(N)=O)[C@@H](C)CC)[C@@H](C)CC)C(C)C` registered an IC50 of 30 µM.
As to H-AGERIVDIIATDIQ-NH2, half-maximal inhibition (IC50) was put at 2 µM.
The figure for H-GYIEAEVI-NH2 is over 1000 µM; for H-HLKTAVQMAVFIHNFKR-NH2 it is 3 µM.
The figure for H-QETAYFLLKLAGR-NH2 is 150 µM; for H-QETAYFLLKLAGRWP-NH2 it is 35 µM.
H-STTVKAASWWA-NH2 displayed an IC50 of over 1000 µM.

One may read the IC50 as the concentration that inhibits the measured activity by half.
